The test system of one data set is SK-OV-3 cells. The data set can be described thus: DNA fragmentation assay (Cell Death Detection ELISA, cytoplasmic fraction), SK-OV-3. The class given is cell-based, human. Particulars: for DNA fragmentation (enrichment factor, internucleosomal DNA fragments): SK-OV-3, 24 h, 3, 10, 30 µM. The procedure: Fragmentation of genomic DNA was determined by means of the Cell Death Detection ELISAPLUS kit (Roche, Basel, Switzerland). This method rests on the immunoenzymatic detection of DNA–histone complexes in the cytoplasmic cell fraction or cell culture supernatants. Cells were plated and cultured in 96-well plates (Greiner Bio-One) at the initial density of 5 × 10^3 cells per well in 100 µL of culture medium. Cells were allowed to attach and grow for 1 day prior to the addition of test reagents. Then, the media were replaced with the working solutions (3 µM, 10 µM, 30 µM), and cells were exposed to compounds 2–6 for 24 h. In some cases, 5 µM cyclosporin A (CsA, an inhibitor of the mitochondrial permeability transition) was added to the cells 30 min before treatment with the betulin derivative. Subsequently, cells were incubated concomitantly with both compounds. After a 24 h incubation period, plates were centrifuged (200× g; 10 min), media were removed, and cells were lysed for 30 min at room temperature. At the next step, the lysates were again spun (200× g; 10 min), and 20 µL of supernatants (cytoplasmic fractions) was moved to the new 96-well streptavidin-coated plate. In one experiment, the presence of mono- and oligonucleosomes was determined in 20 µL samples of centrifuged culture supernatants (media) to detect the permeability of plasma membrane (considered as an indicator of cell necrosis). Then, the sandwich ELISA assay was fulfilled according to the manufacturer’s protocol. Absorbance was measured at 405 nm and 490 nm (reference wavelength), and the enrichment factor of the cytoplasmic (or supernatant) fraction in mono- and oligonucleosomes was calculated according to the formula: EF = absorbance of sample cells/absorbance of control cells.
A high EF index in the cytoplasmic fraction (resulting from DNA fragmentation while maintaining the tightness of cell membranes) is a typical indicator of the relatively early stage of apoptosis.

In data set [1] the test system is OVCAR-3 cells. Description: LDH release assay, OVCAR-3. Type of data set: cell-based, human. Particulars: OVCAR-3, 24 h. On the procedure: In order to evaluate the cytotoxic effect, the release of LDH into the culture medium using the In Vitro Toxicology Assay Kit, Lactic Dehydrogenase Based (TOX7; Sigma Aldrich) was assessed. SK-OV-3 and OVCAR-3 cells were plated and cultured in 96-well plates (Greiner Bio-One) at the initial density of 5 × 10^3 cells per well in 100 µL of culture medium. The density of the cells was determined in the same manner as in the SRB assay. After 24 h, the media were replaced with the working solutions, which contained appropriate test compounds at concentrations of 3 μM, 10 μM, 30 μM, and control medium (0.2% DMSO). Cells were exposed to the test substances for 24 h. The background control comprised wells without cells with only control medium. To determine the maximal LDH release (high control), half of the control cultures were treated with lysis buffer. Wells with untreated cells were used as the low control of the assay. LDH activity in media was assessed according to the manufacturer’s protocol. The absorbance was measured at wavelengths of 490 nm and 690 nm (background), and the percentage of released enzyme was calculated for cells growing in the presence of compounds according to the formula:Cytotoxicity [%] = [(AT − AL)/(AH − AL)] × 100 where AT is the absorbance of treated wells; AL is low control; and AH is high control (maximal LDH release).
Cytotoxicity was expressed as a percentage of the released LDH calculated according to the difference between the absorbance of the treated and low control wells divided by the difference between the absorbance of the high control and low control wells.
(In general: Release of lactate dehydrogenase indicates damage to the cell membrane.)

Data set [2] relates to OVCAR-3 cells. Description: SRB cell proliferation assay, OVCAR-3. Particulars: for IC50: Homo sapiens. The class given is cell-based, human. On the procedure: OVCAR-3 cells (ATCC No. HTB-161™) were cultured in RPMI-1640 medium containing HEPES buffer (2.383 g/L), sodium bicarbonate (1.5 g/L), sodium pyruvate (0.11 g/L) supplemented with 20% fetal bovine serum, 10 µg/mL bovine insulin, 100 U/mL penicillin, and 100 μg/mL streptomycin (all from Sigma Aldrich).
(§1) Betulin 1 and its derivatives were dissolved in dimethyl sulfoxide (DMSO; Sigma Aldrich) as a 15 mM stock solution. Working solutions were prepared through the dilution of stock solutions with culture medium. The final DMSO concentration in culture media was adjusted to 0.2%. The effect of tested compounds on the proliferation of SK-OV-3 and OVCAR-3 cells was measured using the In Vitro Toxicology Assay Kit, Sulforhodamine B based (Sigma Aldrich). Cells were seeded in 96-well plates (Greiner Bio-One, Kremsmünster, Austria) at an initial density of 3 × 10^3 cells per well in 200 µL of culture medium. After 24 h of incubation, betulin 1 and its derivatives at a concentration range of 0.1 μM to 30 μM were added to the wells. Control cultures were treated with vehicle alone (0.2% DMSO). The incubation periods for cells with test compounds were 1 day, 3 days, and 5 days. After appropriate incubation periods, culture media were removed, and cells were fixed in 10% trichloroacetic acid solution for 60 min at 4 °C. After fixation, the TCA solution was removed, and the plates were washed three times with deionized water (300 μL/well) and dried. At the next step, cells were stained with 0.4% sulforhodamine B for 30 min. The excess dye was removed by washing three times with 1% (vol/vol) acetic acid. The protein-bound dye was dissolved in 200 μL 10 mM Tris base solution. Absorbance was measured at 570 nm and 690 nm (reference wavelength) using the MRX Revelation plate reader (Dynex Technologies, Chantilly, VA, USA).
(§2) GraphPad Prism 10.0.2 (GraphPad Software Inc., San Diego, CA, USA) software was used for calculations and the statistical analysis of the IC50 values (Table 1). IC50 was determined by using the “nonlinear regression” mode, and the “log(inhibitor) vs. normalised response—Variable slope” equation was chosen in GraphPad Prism software for calculations. The obtained data were normalized to run from 100% down to 0%, and logarithms of concentration were used. Graphs (Figure 2, Figure 3, Figure 4, Figure 5 and Figure 8, and Supplementary Figure S1) were also prepared using this software. In the case of the lack of normal distribution or homogeneity of variances, the remaining results were analyzed using a non-parametric Kruskal–Wallis test with multiple comparisons. Post hoc analysis was performed with the non-parametric equivalent of Tukey’s test. A p value of <0.05 was considered statistically significant. Otherwise, a one-way ANOVA followed by a Tukey’s post hoc test was applied. t-tests was used to perform pairwise comparisons between group means. Analysis was performed using Statistica 13.1 software (StatSoft, Tulsa, OK, USA).

Data set [3] relates to 18Co normal myofibroblasts. Description: SRB cell proliferation assay, 18Co normal myofibroblasts. The class given is cell-based. Particulars: 18Co, Neg: negative in the concentration used. The procedure: Next, 18Co cells (ATCC No. CRL-1459™) were cultured in MEM medium containing HEPES buffer, 10% fetal bovine serum, 100 U/mL penicillin, and 100 μg/mL streptomycin (all from Sigma Aldrich).
as §1, §2

Where two headings read alike, the source gives them in different places.

For the compound `C=C(C)[C@@H]1CC[C@]2(CO)CC[C@]3(C)[C@H](CC[C@@H]4[C@@]5(C)CC[C@H](O)C(C)(C)[C@@H]5CC[C@]43C)[C@@H]12` [Compound 1, lup-20(29)-ene-3β,28-diol, reference compound], in the data set with SK-OV-3 cells, the “DNA fragmentation (enrichment factor, internucleosomal DNA fragments)” value was “significant increase”. For the same compound, in the data set with OVCAR-3 cells [1] (30 µM), the “cytotoxicity (released LDH), loss of cell membrane integrity” value is on record as “loss of cell membrane integrity was also confirmed”. For the same compound, the IC50 is 9.03 µM in the data set on OVCAR-3 cells [2] (72 h, OVCAR-3, 3 days treatment, SRB assay, read-out: IC50); 10.1 µM with OVCAR-3 cells [2] (120 h, OVCAR-3, 5 days treatment, SRB assay, read-out: IC50); “Neg” in data set [3] (3 days treatment); “Neg” in data set [3] (5 days treatment).
In the case of `C#CC(=O)OC[C@]12CC[C@@H](/C(C)=C/P(=O)(OCC)OCC)C1C1CCC3[C@@]4(C)CC[C@H](O)C(C)(C)C4CC[C@@]3(C)[C@]1(C)CC2` (some centres unmarked) [Compound 6, E-29-diethoxyphosphoryl-28-O-propynoylbetulin], the “DNA fragmentation (enrichment factor, internucleosomal DNA fragments)” value in the data set with SK-OV-3 cells is on record as “moderate increases”. Also, in the data set with SK-OV-3 cells (SK-OV-3, 24 h, with 5 µM cyclosporin A added 30 min before), the “effect of CsA on compound-induced cell death, DNA fragmentation” value is recorded as “almost completely prevented”. The “cytotoxicity (released LDH)” value in the data set with OVCAR-3 cells [1] (all concentrations (3, 10, 30 μM)) is “significant cytotoxic activity”. Moreover, the IC50 in the data set on OVCAR-3 cells [2] (OVCAR-3, 72 h) is 0.68 µM; with OVCAR-3 cells [2] (OVCAR-3, 120 h), 0.59 µM; in data set [3] (3 days treatment) it was “Neg”; in data set [3] (5 days treatment), “Neg”. The “concentration at which antiproliferative activity (decrease in the number of cells) was evident” value in the data set with OVCAR-3 cells [2] (OVCAR-3, SRB assay, 0.1–30 µM) turned out to be 1 µM.

What is called IC50 is the concentration at which inhibition is half-maximal.

(Values after article PMC10671498, “Antiproliferative and Cytotoxic Properties of Propynoyl Betulin Derivatives against Human Ovarian Cancer Cells: In Vitro Studies” (International Journal of Molecular Sciences, 2023).)
